Laboratory results: patent US7294651B2 (priority 2001, dated 2007)
Values joined by “and” are separate entries in the source; they are usually repeats but may differ in a detail not shown here. Equal entries are not always repeated.

Columns and labels:
[1] = tested on: S. aureus (MN8); type: cell-based
[2] = tested on: TSST-1; type: cell-based, S. aureus; design: ng TSST-1 per CFU: scale not given here

Molecule: CC(=O)/C=C/C1=C(C)CCCC1(C)C [Beta-ionone]
- CFU/mL [1]: 1.8E+08 CFU/mL
- Optical Density [1]: 0.688
- Reduction of Toxin % [2]: 100%
- ng TSST-1 per OD Unit [2]: none

Molecule: CC1CCC(C(C)C)C(O)C1 (centres unmarked) [Menthol, menthol]
- effect on the growth of S. aureus cells [1]: minimal, if any, effect

Molecule: myreth-3-myristate [Cetiol]
- CFU/mL × 10^8 [1]: 4.2 CFU/mL × 10^8 and 5.9 CFU/mL × 10^8 and 5.0 CFU/mL × 10^8
- ng TSST-1 per CFU [2]: 371 and 196 and 200
- ng TSST-1 per mL [2]: 1556 ng TSST-1 per mL and 1147 ng TSST-1 per mL and 989 ng TSST-1 per mL
